Source: PMC5719359 (Scientific Reports, 2017)

Molecular target: T1, tubulin (Sus scrofa, UniProt P02550+P02554)
T1 construct: purified porcine tubulin; with alpha-tubulin (alpha/beta heterodimer)
Experiment: fluorescence colchicine competition assay; the IC50 is from the in vitro tubulin polymerization assay
Assay type: biochemical

SMILES: COc1cc(OC)cc(N2CCN(C(=O)c3n[nH]nc3-c3ccccc3Cl)CC2)c1 [7p]
- IC50: 2060 nM
